Measurements published in patent US20090099253A1, “Internally Masked Neopentyl Sulfonyl Ester Cyclization Release Prodrugs of Acamprosate, Compositions Thereof, and Methods of Use” (XenoPort, Inc., priority 2007, published 2009).

Experiments:
[1] = tested on: patients with alcohol dependence; conditions: patients with alcohol dependence abstinent at initiation of treatment; cited from earlier work
[2] = cited from earlier work
cocaine conditioned mice = conditions: 100 mg/kg for 3 days; cited from earlier work
individual patients = conditions: doses from about 1,000 mg/day to about 2,000 mg/day; cited from earlier work
[3] = tested on: patients being treated for alcohol withdrawal; conditions: cited from earlier work
[4] = rat, in vivo
Description: Acamprosate or acamprosate prodrug was administered by oral gavage to groups of four to six adult male Sprague-Dawley rats (about 250 g). Animals were conscious at the time of the experiment. Acamprosate or acamprosate prodrug was orally (po) or colonically (ic) administered in 3.4% Phosal or 5% Phosal (53 MCT in 7.5% Tween 80 in 50 mM sodium phosphate buffer, pH 6.8) at a dose of 70 mg-equivalents acamprosate per kg body weight.
The percent relative bioavailability (F %) of acamprosate was determined by comparing the area under the acamprosate concentration vs time curve (AUC) following oral or colonic administration of an acamprosate prodrug or acamprosate with the AUC of the acamprosate concentration vs time curve following intravenous administration of acamprosate on a dose normalized basis.

In the case of CC(=O)NCCCS(=O)(=O)O [acamprosate, 3-(Acetylamino)propylsulfonic acid], the “maintaining abstinence from alcohol” value [1] is given as “effective for maintaining abstinence from alcohol”, the steady-state plasma concentration ([2]; doses of about 1-2 gm per day) is given as 370 to 640 ng/mL and the “time post-dose at which steady-state plasma concentration occurs” value ([2]; doses of about 1-2 gm per day) is given as 3 to 8 h. The oral bioavailability ([2]; humans, oral) was “about 11%”, the “effect on relapse-like behavior” value (cocaine conditioned mice) was “attenuated relapse-like behavior” and the “treatment of tardive dyskinesia, dystonia, and tic” value (individual patients) was “effective in treating tardive dyskinesia, dystonia, and tic”. The effect on sleep [3] was “improve sleep”.

In the case of CC(=O)NCCCS(=O)(=O)OCC(C)(C)[C@@H]1COC(=O)O1 [Compound 12, 2-((4R)-2-Oxo(1,3-dioxolan-4-yl))-2-methylpropyl[3-(acetylamino)propyl]sulfonate], the “acamprosate colonic bioavailability relative to the acamprosate colonic bioavailability of an equivalent dose of acamprosate itself” value [4] is reported as “at least 5 times”.

CC(=O)NCCCS(=O)(=O)OCC1(C)CCC(=O)O1 (racemic) [Compound 6, rac-(2-Methyl-5-oxo-2-2,3,4-trihydrofuryl)methyl [3-(acetylamino)propyl]sulfonate] showed a melting point of 63.1 to 64.8 °C.
